The structures appear in SMILES notation.

This assay has as its system Cells expressing FALS mutant SOD1, cell death protection. The assay is described as follows: cytoprotection in mutant SOD1 ALS cell model – familial ALS SOD1 mutant (AID 1605).
With `Cc1ccc(C(=O)C(C)CN2CCCCC2)cc1` (configuration not stated), the EC50 (as a rule, the midpoint of the concentration-response curve) amounted to 19.1 µM.
As for `CC(C)CC1NC(=O)CNC1=O` (configuration not stated), the EC50 was found to be 0.0222 µM.
The figure for `COC(=O)C1=C(C)NC(C)=C(C(=O)OC)C1c1ccccc1[N+](=O)[O-]` is 28.9 µM.
In the case of `C1CNCCN1` it was 7130 µM; in that of `NCCC(O)C(=O)N[C@@H]1C[C@H](N)[C@@H](O[C@H]2O[C@H](CN)[C@@H](O)[C@H](O)[C@H]2N)[C@H](OC2O[C@H](CO)[C@H](O)[C@H]2O)[C@H]1O` (some centres not stated), 0.2 µM.
In the case of `CCCC(=O)Nc1ccc(OCC(O)CNC(C)C)c(C(C)=O)c1` (configuration not stated), the 50% effective concentration (EC50) worked out at 48.8 µM.
`CN[C@@H]1[C@H](O)[C@H](NC)[C@H]2O[C@@]3(O)C(=O)C[C@@H](C)O[C@H]3OC2[C@H]1O` (some centres not stated): the concentration giving a half-maximal response (EC50) is 0.0222 µM.
In the case of `CN1CC[C@]23c4c5ccc(O)c4O[C@H]2C(=O)CCC3[C@H]1C5` (some centres not stated) it was 3410 µM.
For `COc1cc(C)c2c(=O)cc(-c3ccccc3)oc2c1`, the concentration giving a half-maximal response (EC50) stood at 45.8 µM.
The figure for `O=[N+]([O-])c1cc([As](=O)(O)O)ccc1O` is 71.9 µM; for `O=C(OCC(O)CO)c1ccccc1Nc1ccnc2cc(Cl)ccc12` (configuration not stated) it is 3200 µM; for `COC(=O)/C(=C1\OC(=O)C(c2ccccc2)C1=O)c1ccccc1` (configuration not stated) it is 3940 µM.
In the case of `O=C1O[C@@H](CO)[C@H](O)[C@@H](O)[C@@H]1O` it was 9.33 µM; in that of `O=C(O)CCC(=O)OC[C@@H](NC(=O)C(Cl)Cl)[C@H](O)c1ccc([N+](=O)[O-])cc1`, 1.1 µM; in that of `CC/C(=C(/CC)c1ccc(O)cc1)c1ccc(O)cc1`, 0.0327 µM.
In turn, `CC[C@@H](CO)NC(=O)[C@@H]1C=C2c3cccc4[nH]cc(c34)C[C@H]2N(C)C1` had an EC50 of 2890 µM.
The figure for `CCC1(c2ccccc2)C(=O)NCNC1=O` is 741 µM.
In the case of `O=c1cc(-c2ccccc2)oc2cc(O)cc(O)c12` it was 6.47 µM; in that of `NCC(CC(=O)O)c1ccc(Cl)cc1` (configuration not stated), 0.38 µM.
The compound `CC(CCc1ccccc1)NC(C)C(O)c1ccc(O)cc1` (configuration not stated) gave a concentration for a half-maximal effect (EC50) of 76.9 µM. Against the preceding compound, the EC50 is about 200-fold higher.
`Oc1cc(O)c2c(c1)O[C@H](c1ccc(O)c(O)c1)[C@@H](O)C2` returned an EC50 of 73.1 µM.
In the case of `CN(C)/N=N/c1nc[nH]c1C(N)=O` it was 82 µM; in that of `CC(NC(=O)C(NC(=O)OCc1ccccc1)C(C)C)C(=O)NC(CC(=O)O)C(=O)OC(F)F` (configuration not stated), 916 µM; in that of `COc1ccc2[nH]cc(CCNC(C)=O)c2c1`, 178 µM.
`NC[C@H]1O[C@H](O[C@H]2C(O[C@@H]3O[C@H](CO)[C@@H](O)[C@H]3O)[C@@H](O)[C@H](N)C[C@@H]2N)[C@H](N)[C@@H](O)[C@@H]1O` (some centres not stated) registered a concentration giving a half-maximal response (EC50) of 5790 µM.
On to `CC(N)Cc1ccc2c(c1)OCO2` (configuration not stated), for which the EC50 worked out at 2120 µM.
In turn, `CCn1cc(C(=O)O)c(=O)c2cc3c(cc21)OCO3` returned a concentration for a half-maximal effect (EC50) of 2.38 µM.
In the case of `Cc1cc(C2CCCCC2)n(O)c(=O)c1` it was 30.9 µM.
On to `C[C@]12C=CC(=O)C=C1CCC1C2C(=O)C[C@@]2(C)C1CC[C@]2(O)C(=O)CO` (some centres not stated), for which the half-maximal effective concentration (EC50) was 2610 µM.
In the case of `Nc1nc2ncc(CNc3ccc(C(=O)N[C@@H](CCC(=O)O)C(=O)O)cc3)nc2c(=O)[nH]1` it was 785 µM; in that of `NC(=O)NC1NC(=O)NC1=O` (configuration not stated), 0.0224 µM.
The figure for `CC[C@@H]1C(=O)OC[C@@H]1Cc1cncn1C` is 3060 µM; for `CN1C(=O)CN=C(c2ccccc2)c2cc(Cl)ccc21` it is 118 µM.
For the compound `CCCC(C)C1(CC)C(=O)N=C(S)NC1=O` (configuration not stated), the EC50 was 29.9 µM.
In the case of `C[C@H]1C(=O)O[C@@H]2CCN3CC=C(COC(=O)[C@](C)(O)[C@]1(C)O)[C@H]23` it was 239 µM.
The figure for `CN(C)c1ccc(O)c2c1C[C@H]1C[C@H]3[C@H](N(C)C)C(=O)C(C(N)=O)=C(O)[C@@]3(O)C(=O)C1=C2O` is 14.4 µM; for `CCC(=O)c1c(O)cc(O)cc1O` it is 157 µM.

The values above are taken from PubChem BioAssay AID1605 (NINDS Approved Drug Screening Program, 2009).
